Assay results: the supplement of paper PMC8149375

Columns and labels:
Settings in all cases: treatment: drug alone; 5 days
ACHN [1] = experiment: minimum viability across doses, drug alone, relative to DMSO (fraction); higher = less growth inhibition
Protocol: (§1)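 Primary HTS: 8 RCC cell lines treated with 8 doses (up to 10 uM) of each library drug alone for 5 days; viability read by CellTiter-Glo and normalised to DMSO. GI50 was fitted with XLfit (4-parameter), AUC is the area under the dose-response curve, and minimum viability is the lowest fraction of DMSO viability across doses.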

769-P [2] = experiment: as above
Protocol: as §1

UO-31 [3] = experiment: as above
Protocol: as §1

CAKI-1 [4] = experiment: as above
Protocol: as §1

TK-10 [5] = experiment: as above
Protocol: as §1

SN12C [6] = experiment: as above
Protocol: as §1

786-O [7] = experiment: as above
Protocol: as §1

A498 [8] = experiment: as above
Protocol: as §1

ACHN [9] = experiment: AUC of dose-response viability curve, drug alone (arbitrary (AUC of normalised viability)); higher = less growth inhibition
Protocol: as §1

769-P [10] = experiment: as above
Protocol: as §1

UO-31 [11] = experiment: as above
Protocol: as §1

CAKI-1 [12] = experiment: as above
Protocol: as §1

TK-10 [13] = experiment: as above
Protocol: as §1

SN12C [14] = experiment: as above
Protocol: as §1

786-O [15] = experiment: as above
Protocol: as §1

A498 [16] = experiment: as above
Protocol: as §1

ACHN [17] = experiment: GI50, drug alone; higher = less potent
Protocol: as §1

769-P [18] = experiment: GI50, drug alone; higher = less potent
Protocol: as §1

UO-31 [19] = experiment: GI50, drug alone; higher = less potent
Protocol: as §1

CAKI-1 [20] = experiment: GI50, drug alone; higher = less potent
Protocol: as §1

TK-10 [21] = experiment: GI50, drug alone; higher = less potent
Protocol: as §1

SN12C [22] = experiment: GI50, drug alone; higher = less potent
Protocol: as §1

786-O [23] = experiment: GI50, drug alone; higher = less potent
Protocol: as §1

A498 [24] = experiment: GI50, drug alone; higher = less potent
Protocol: as §1

| GI50, drug alone (ACHN [17]) [µM] | GI50, drug alone (786-O [23]) [µM] | SMILES | minimum viability across doses (ACHN [1]) | minimum viability across doses (769-P [2]) | minimum viability across doses (UO-31 [3]) | minimum viability across doses (CAKI-1 [4]) | minimum viability across doses (TK-10 [5]) | minimum viability across doses (SN12C [6]) | minimum viability across doses (786-O [7]) | minimum viability across doses (A498 [8]) | AUC of dose-response viability curve (ACHN [9]) | AUC of dose-response viability curve (769-P [10]) | AUC of dose-response viability curve (UO-31 [11]) | AUC of dose-response viability curve (CAKI-1 [12]) | AUC of dose-response viability curve (TK-10 [13]) | AUC of dose-response viability curve (SN12C [14]) | AUC of dose-response viability curve (786-O [15]) | AUC of dose-response viability curve (A498 [16]) | GI50, drug alone (769-P [18]) [µM] | GI50, drug alone (UO-31 [19]) [µM] | GI50, drug alone (CAKI-1 [20]) [µM] | GI50, drug alone (TK-10 [21]) [µM] | GI50, drug alone (SN12C [22]) [µM] | GI50, drug alone (A498 [24]) [µM] |
| --- | --- | --- | --- | --- | --- | --- | --- | --- | --- | --- | --- | --- | --- | --- | --- | --- | --- | --- | --- | --- | --- | --- | --- | --- |
| 5.85 | 2.01 | COc1cc(Nc2ncc(F)c(Nc3ccc4c(n3)NC(=O)C(C)(C)O4)n2)cc(OC)c1OC.O=S(=O)(O)c1ccccc1 [R406] | 0.451 | 0.536 | 0.164 | 0.183 | 0.479 | 0.336 | 0.221 | 0.882 | 2.94 | 3.1 | 2.59 | 2.59 | 2.85 | 3.11 | 2.46 | 3.57 | > 10 | 8.77 | 1.33 | 9.02 | 4.6 | > 10 |
| 0.168 | 0.0504 | CS(=O)(=O)O.O=C(Nc1cccc(Cl)c1)Nc1ncc(CCNc2ncnc3ccsc23)s1 [SNS-314] | 0.17 | 0.343 | 0.891 | 0.172 | 0.536 | 0.245 | 0.159 | 0.637 | 1.77 | 2.2 | 4.36 | 1.36 | 2.73 | 2.54 | 1.76 | 4.02 | 0.506 | > 10 | 0.0361 | > 10 | 1.75 | > 10 |
| 1.03 | 2.81 | CN1CCN(CCOc2cc(OC3CCOCC3)c3c(Nc4c(Cl)ccc5c4OCO5)ncnc3c2)CC1 [Saracatinib (AZD0530)] | 0.22 | 0.0835 | 0.447 | 0.213 | 0.109 | 0.504 | 0.302 | 0.958 | 2.46 | 2.47 | 4.46 | 3.08 | 2.45 | 2.84 | 2.35 | 3.69 | 1.26 | 8.99 | 2.34 | 1.22 | > 10 | > 10 |
| 8.05 | 4.87 | CNC(=O)c1cc(Oc2ccc(NC(=O)Nc3ccc(Cl)c(C(F)(F)F)c3)cc2)ccn1.Cc1ccc(S(=O)(=O)O)cc1 [Sorafenib (Nexavar)] | 0.0796 | 0.592 | 0.00476 | 0.18 | 0.513 | 0.154 | 0.0994 | 0.627 | 3.46 | 3.31 | 2.44 | 3.55 | 3.25 | 2.9 | 2.7 | 3.4 | > 10 | 0.734 | 9.2 | > 10 | 5.13 | > 10 |
| 0.65 | 3.98 | CCN(CC)CCNC(=O)c1c(C)[nH]c(/C=C2\C(=O)Nc3ccc(F)cc32)c1C.O=C(O)C[C@H](O)C(=O)O [Sunitinib Malate (Sutent)] | 0.0641 | 0.156 | 0.0171 | 0.0138 | 0.186 | 0.0296 | 0.0182 | 0.21 | 2.33 | 3.15 | 3.93 | 2.77 | 2.82 | 2.6 | 3.62 | 3.58 | 5.36 | 3.15 | 1.49 | 3.29 | 1.9 | 5.2 |

The next lines start with the molecule.

| SMILES | GI50, drug alone (ACHN [17]) [µM] | GI50, drug alone (786-O [23]) [µM] | minimum viability across doses (ACHN [1]) | minimum viability across doses (769-P [2]) | minimum viability across doses (UO-31 [3]) | minimum viability across doses (CAKI-1 [4]) | minimum viability across doses (TK-10 [5]) | minimum viability across doses (SN12C [6]) | minimum viability across doses (786-O [7]) | minimum viability across doses (A498 [8]) | AUC of dose-response viability curve (ACHN [9]) | AUC of dose-response viability curve (769-P [10]) | AUC of dose-response viability curve (UO-31 [11]) | AUC of dose-response viability curve (CAKI-1 [12]) | AUC of dose-response viability curve (TK-10 [13]) | AUC of dose-response viability curve (SN12C [14]) | AUC of dose-response viability curve (786-O [15]) | AUC of dose-response viability curve (A498 [16]) | GI50, drug alone (769-P [18]) [µM] | GI50, drug alone (UO-31 [19]) [µM] | GI50, drug alone (CAKI-1 [20]) [µM] | GI50, drug alone (TK-10 [21]) [µM] | GI50, drug alone (SN12C [22]) [µM] | GI50, drug alone (A498 [24]) [µM] |
| --- | --- | --- | --- | --- | --- | --- | --- | --- | --- | --- | --- | --- | --- | --- | --- | --- | --- | --- | --- | --- | --- | --- | --- | --- |
| COc1cc(Nc2ncc(F)c(Nc3ccc4c(n3)NC(=O)C(C)(C)O4)n2)cc(OC)c1OC [R406(free base)] | 1.42 | 1.59 | 0.306 | 0.474 | 0.0454 | 0.142 | 0.396 | 0.359 | 0.128 | 1 | 2.35 | 3.13 | 4.5 | 2.61 | 2.44 | 2.79 | 2.21 | 4.42 | 9.62 | 8.51 | 1.26 | 4.07 | 3.89 | > 10 |
| COc1cc(Nc2ncc(F)c(Nc3ccc4c(n3)N(COP(=O)(O)O)C(=O)C(C)(C)O4)n2)cc(OC)c1OC [R788 (Fostamatinib)] | 1.22 | 1.16 | 0.0584 | 0.145 | 0.00902 | 0.0246 | 0.308 | 0.287 | 0.158 | 1.06 | 2.73 | 2.94 | 4.78 | 2.49 | 2.64 | 2.79 | 2.54 | 4.24 | 3.5 | 6.02 | 0.913 | 3.3 | 2.98 | > 10 |
| FC(F)(F)c1ccc(Nc2nc3cc(Oc4ccnc(-c5ncc(C(F)(F)F)[nH]5)c4)ccc3[nH]2)cc1 [Raf265 derivative] | 8.48 | 5.37 | 0.142 | 0.473 | 0.0014 | 0.298 | 0.534 | 0.651 | 0.141 | 1.04 | 3.47 | 3.24 | 3.5 | 3.62 | 3.18 | 3.32 | 2.69 | 4.16 | 9.97 | 1.05 | 9.39 | > 10 | > 10 | > 10 |
| CO[C@H]1C[C@@H]2CC[C@@H](C)[C@@](O)(O2)C(=O)C(=O)N2CCCC[C@H]2C(=O)O[C@H]([C@H](C)C[C@@H]2CC[C@@H](O)[C@H](OC)C2)CC(=O)[C@H](C)/C=C(\C)[C@@H](O)[C@@H](OC)C(=O)[C@H](C)C[C@H](C)/C=C/C=C/C=C/1C [Rapamycin (Sirolimus)] | 0.171 | < 0.003 | 0.38 | 0.504 | 0.0503 | 0.377 | 0.491 | 0.557 | 0.211 | 0.547 | 1.77 | 2.08 | 0.524 | 1.91 | 2.04 | 2.11 | 0.986 | 2.44 | > 10 | < 0.003 | 0.358 | > 10 | 1.76 | > 10 |
| CNC(=O)c1cc(Oc2ccc(NC(=O)Nc3ccc(Cl)c(C(F)(F)F)c3)c(F)c2)ccn1 [Regorafenib (BAY 73-4506)] | 7.85 | > 10 | 0.39 | 0.894 | 0.186 | 0.363 | 0.536 | 0.387 | 0.598 | 0.883 | 3.38 | 3.39 | 3.11 | 3.16 | 3.02 | 3.16 | 2.63 | 3.76 | > 10 | 2.55 | 7.35 | > 10 | 8.24 | > 10 |
| CC[C@H](CO)Nc1nc(NCc2ccccc2)c2ncn(C(C)C)c2n1 [Roscovitine (Seliciclib, CYC202)] | 7.52 | 4.97 | 0.36 | 0.848 | 0.544 | 0.763 | 0.655 | 0.769 | 0.208 | 1.03 | 3.25 | 3.28 | 3.47 | 3.27 | 3.17 | 3.57 | 2.76 | 3.91 | > 10 | > 10 | > 10 | > 10 | > 10 | > 10 |
| Cn1cc(-c2ccc3nnc(Sc4ccc5ncccc5c4)n3n2)cn1 [SGX-523] | > 10 | > 10 | 0.725 | 0.776 | 1.01 | 0.806 | 0.775 | 0.746 | 0.56 | 0.855 | 3.23 | 3.22 | 3.83 | 3.18 | 3.06 | 3.21 | 2.77 | 3.75 | > 10 | > 10 | > 10 | > 10 | > 10 | > 10 |
| Cc1cc(C)c(/C=C2\C(=O)Nc3ccccc32)[nH]1 [Semaxanib (SU5416)] | > 10 | > 10 | 0.76 | 0.892 | 0.928 | 0.902 | 0.778 | 0.911 | 0.778 | 0.97 | 2.92 | 3.45 | 4.68 | 3.45 | 3.2 | 3.42 | 3.12 | 3.76 | > 10 | > 10 | > 10 | > 10 | > 10 | > 10 |
| CN1CCN(c2nc(C3=C(c4c[nH]c5ccccc45)C(=O)NC3=O)c3ccccc3n2)CC1 [Sotrastaurin (AEB071)] | > 10 | > 10 | 0.743 | 0.969 | 1.38 | 0.783 | 0.805 | 0.91 | 0.911 | 1.12 | 3.2 | 2.58 | 5.49 | 3.38 | 3.23 | 3.44 | 4 | 4.36 | > 10 | > 10 | > 10 | > 10 | > 10 | > 10 |
| CN[C@@H]1C[C@H]2O[C@@](C)([C@@H]1OC)n1c3ccccc3c3c4c(c5c6ccccc6n2c5c31)C(=O)NC4 [Staurosporine] | 0.00533 | < 0.003 | 0.00377 | 0.00587 | 0.0116 | 0.00272 | 0.0227 | 0.00485 | 0.00288 | 0.0127 | 0.526 | 0.299 | 0.1 | 0.143 | 0.286 | 1.06 | 0.171 | 1.56 | < 0.003 | < 0.003 | < 0.003 | < 0.003 | 0.0333 | 0.0909 |
